This note sets out measurements from patent publication US8901125B2, “Substituted bicyclic alkoxy pyrazole analogs as allosteric modulators of mGluR5 receptors” (Vanderbilt University, priority 2012, dated 2014).

The subject of series [1] is amphetamine-induced hyperlocomotion. Kind of series: Reversal of amphetamine-induced hyperlocomotion in rats. In kind it is in vivo, male Sprague-Dawley rats. As to conditions: 10 mg/kg p.o.; amphetamine 1 mg/kg s.c.; intervals 13-24; rat. How it is done: The study was carried out using male Sprague-Dawley rats weighing 225 g-275 g, between 2-3 months old (Harlan, Inc., Indianapolis, Ind.). They were kept in the animal care facility certified by the American Association for the Accreditation of Laboratory Animal Care (AALAC) under a 12-hour light/dark cycle (lights on: 6 a.m.; lights off: 6 p.m.) and had free access to food and water. The experimental protocols performed during the light cycle were approved by the Institutional Animals Care and Use Committee of Vanderbilt University and conformed to the guidelines established by the National Research Council Guide for the Care and Use of Laboratory Animals
Locomotor activity was assessed as mean distance traveled (cm) in Smart Open Field locomotor activity test chambers (Hamilton-Kinder, San Diego, Calif.) with 16×16 photobeams with chambers measuring 43.2 cm (Length)×43.2 cm (Width)×30.5 cm (Height) (Med Associates, St. Albans, Vt.). The animals were habituated for 30 min and then dosed with vehicle or test compound. The rats were then placed into cages. At 60 min, all rats were injected subcutaneously with 1 mg/kg amphetamine or vehicle and then monitored for an additional 60 min. Animals are monitored for a total of 120 minutes.
Data are expressed as the mean (±SEM) distance traveled recorded in 5 min intervals over the test period. The data was analyzed using repeated measures analysis of variance (ANOVA) followed by post-hoc testing using Dunnett's test, when appropriate. A difference was considered significant when p≦0.05. The data for the dose-response studies were analyzed by a between-group analysis of variance. If there was a main effect of dose, then each dose group was compared with the vehicle amphetamine group. The calculations were performed using JMP IN 8 (SAS Institute, Cary, N.C.) statistical software and graphed using SigmaPlot9 (Saugua, Mass.).
Amphetamine sulfate was obtained from Sigma (Cat#A5880-1G; St. Louis, Mo.) and 10 mg was dissolved in 10 ml of water. […]

The target in series [2] is human mGluR5a receptor (Homo sapiens, UniProt P41594). Put plainly: Cell-based functional assay (Ca2+ mobilization, FDSS), potentiation of glutamate EC20 response. As to conditions: H10H cell line; for Emax: maximum % effect in the concentration-response curve as percent of maximal glutamate response, glutamate EC20; for pEC50: potentiation in presence of glutamate EC20, concentration in mol/L. An excerpt: Human mGluR5a cDNA in pCMV6-XL6 mammalian expression plasmid was purchased from OriGene Technologies, Inc. (catalogue number SC326357) and subcloned into pcDNA3.1(−). Human embryonic kidney (HEK)293A cells were then transfected with human mGluR5a pcDNA3.1(−) using LipofectAmine-2000 (Invitrogen) and monoclones were selected and tested for functional response using a Ca^2+ mobilization assay. Monoclones were named for the species (“H” for human) plus the location on the plate (e.g. “10H”).
HEK cells transfected with the human mGluR5a receptor (H10H or H12H cell line) were plated at 15,000 cells/well in clear-bottomed poly-D-lysinecoated assay plates (BD Falcon) in glutamate-glutamine-free growth medium and incubated overnight at 37° C. and 5% CO2. Cell-lines used were either the H10H or H12H cell-lines expressing the human mGluR5 receptor. The following day, the growth medium was removed and the cells were washed with assay buffer containing 1× Hank's balanced salt solution (Invitrogen, Carlsbad, Calif.), 20 mM HEPES, 2.5 mM probenecid, pH 7.4 and left with 20 μL of this reagent. Following this step, the cells were loaded with calcium indicator dye, fluo-4 AM, to a final concentration of 2 μM and incubated for 40-45 min at 37° C. The dye solution was removed and replaced with assay buffer. Cell plates were held for 10-15 min at room temperature and were then loaded into the Functional Drug Screening System 6000 (FDSS 6000, Hamamatsu, Japan).
After establishment of a fluorescence baseline for about 3 seconds, the compounds of the present invention were added to the cells, and the response in cells was measured. 2.3 minutes later an EC20 concentration of the mGluR5 receptor agonist glutamate was added to the cells, and the response of the cells was measured for about 1.7 minutes. All test compounds were dissolved and diluted to a concentration of 10 mM in 100% DMSO and then serially diluted into assay buffer for a 2× stock solution in 0.6% DMSO; stock compounds were then added to the assay for a final DMSO concentration of 0.3% after the first addition to the assay well. Calcium fluorescence measures were recorded as fold over basal fluorescence; raw data was then normalized to the maximal response to glutamate. Potentiation of the agonist response of the mGluR5 receptor in the present invention was observed as an increase in response to submaximal concentrations of glutamate in the presence of compound compared to the response to glutamate in the absence of compound.
The concentration-response curves of compounds of the present invention, obtained in the presence of EC20 of mGluR5 receptor agonist glutamate to determine positive allosteric modulation, were generated using Microsoft Excel with IDBS XLFit add-ins. The raw data file containing all time points was used as the data source in the analysis template. This was saved by the FDSS as a tab-delimited text file. Data were normalized using a static ratio function (F/F0) for each measurement of the total 350 values per well divided by each well's initial value. Data was then reduced as to peak amplitudes (Max Initial Min) using a time range that starts approximately 1 second after the glutamate EC20 addition and continues for approximately 40 seconds. This is sufficient time to capture the peak amplitude of the cellular Calcium response. Individual amplitudes were expressed as % EMax by multiplying each amplitude by 100 and then dividing the product by the mean of the amplitudes derived from the glutamate ECMax-treated wells. pEC50 values for test compounds were generated by fitting the normalized values versus the log of the test compound concentration (in mol/L) using a 4 parameter logistic equation where none of the parameters were fixed. Each of the three values collected at each concentration of test compound were weighted evenly. Individual values falling outside the 95% prediction limits of the curve fit were automatically excluded from the fit. […]
On the technique in general: Calcium assays in cells follow changes in intracellular calcium, usually with a dye or a luminescent sensor.

Molecules are shown by their SMILES. pEC50: −log10 of the molar value.

Sequence of human mGluR5a receptor (P41594 21-1180 isoform P41594-2 limits assumed): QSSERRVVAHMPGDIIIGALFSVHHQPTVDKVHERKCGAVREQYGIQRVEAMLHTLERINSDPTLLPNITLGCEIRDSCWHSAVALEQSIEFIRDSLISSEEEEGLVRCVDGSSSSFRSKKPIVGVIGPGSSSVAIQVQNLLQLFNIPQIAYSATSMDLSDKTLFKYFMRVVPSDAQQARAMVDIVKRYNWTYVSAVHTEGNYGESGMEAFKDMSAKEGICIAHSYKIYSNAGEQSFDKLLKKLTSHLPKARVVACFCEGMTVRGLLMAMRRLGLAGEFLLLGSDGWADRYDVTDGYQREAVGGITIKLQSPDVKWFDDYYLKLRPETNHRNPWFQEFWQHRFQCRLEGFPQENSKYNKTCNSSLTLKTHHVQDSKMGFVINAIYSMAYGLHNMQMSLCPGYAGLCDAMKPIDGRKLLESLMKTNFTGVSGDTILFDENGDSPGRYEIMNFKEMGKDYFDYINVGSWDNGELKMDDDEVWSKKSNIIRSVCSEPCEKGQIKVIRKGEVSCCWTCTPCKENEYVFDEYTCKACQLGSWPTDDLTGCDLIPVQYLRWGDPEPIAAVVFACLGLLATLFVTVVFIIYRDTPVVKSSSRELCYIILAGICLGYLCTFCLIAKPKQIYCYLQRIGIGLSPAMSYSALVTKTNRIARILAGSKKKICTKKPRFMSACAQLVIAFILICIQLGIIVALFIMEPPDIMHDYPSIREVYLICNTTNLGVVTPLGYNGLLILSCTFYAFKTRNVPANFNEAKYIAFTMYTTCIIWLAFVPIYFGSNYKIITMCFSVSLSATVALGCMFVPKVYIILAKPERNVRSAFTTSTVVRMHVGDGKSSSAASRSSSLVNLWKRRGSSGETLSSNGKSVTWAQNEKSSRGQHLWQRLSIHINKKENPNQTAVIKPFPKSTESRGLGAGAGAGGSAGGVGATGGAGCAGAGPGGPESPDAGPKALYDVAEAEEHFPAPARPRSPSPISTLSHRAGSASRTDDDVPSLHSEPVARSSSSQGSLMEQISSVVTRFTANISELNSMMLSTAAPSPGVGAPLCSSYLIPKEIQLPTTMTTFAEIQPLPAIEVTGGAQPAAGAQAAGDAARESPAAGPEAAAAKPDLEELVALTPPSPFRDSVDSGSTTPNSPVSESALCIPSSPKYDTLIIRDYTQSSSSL

What is called Emax is the size of the effect at its maximum, as opposed to the concentration needed. Broadly, the pEC50 is the negative decadic logarithm of the EC50, by convention in mol/L. What is called melting point is the temperature, or range, at which the solid turns liquid. The molecule `CN(C)c1cccc(N2CCn3nc(OCc4ccccc4)cc3C2=O)n1` [Example B15, 2-(benzyloxy)-5-(6-(dimethylamino)pyridin-2-yl)-6,7-dihydropyrazolo[1,5-a]pyrazin-4(5H)-one] came in with a melting point of 115.3 °C. In series [1], the “% Reversal of amphetamine-induced hyperlocomotion” value (shortened to “% Reversal”) is 32%. Further, in series [2], the maximal response (Emax) stood at 61% and the pEC50 was 7.59.

The molecule `Cc1nc(N2CCn3nc(OCc4ccccc4)cc3C2=O)ccc1F` [Example B17, 2-(benzyloxy)-5-(5-fluoro-6-methylpyridin-2-yl)-6,7-dihydropyrazolo[1,5-a]pyrazin-4(5H)-one] displayed a melting point of 167.1 °C. Also, in series [1], the “% Reversal” value was determined as 14%. For the same molecule, in series [2], the maximal effect (Emax) was 55% and the pEC50 was 6.91.

`O=C1c2cc(OCc3cccc(F)c3)nn2CCN1c1ccc(F)cc1` [Example B26, 2-((3-fluorobenzyl)oxy)-5-(4-fluorophenyl)-6,7-dihydropyrazolo[1,5-a]pyrazin-4(5H)-one]: the melting point is 116.4 °C. Moreover, the “% Reversal” value in series [1] is 25%. Further, in series [2], the Emax is 45% and the pEC50 is 7.02.

`O=C1c2cc(OCc3ccncc3)nn2CCN1c1ccc(F)cc1` [Example B31] gave a melting point of 172.9 °C. In series [2], the maximal response (Emax) came out at 26% and the pEC50 is < 4.52.

In the case of `O=C1c2cc(OCc3ccc(F)cc3)nn2CCN1c1ccc(F)cc1` [Example B32], the melting point stood at 155.8 °C. In series [2], the maximal effect (Emax) was determined as 18% and the pEC50 is < 4.52.

`COc1cccc(COc2cc3n(n2)CCN(c2ccc(F)cc2)C3=O)c1` [Example B33] had a melting point of 105.1 °C. In series [2], the Emax was determined as 18% and the pEC50 was < 4.52.

Molecule `Cc1cccc(COc2cc3n(n2)CCN(c2ccc(F)cc2)C3=O)n1` [Example B36] registered a melting point of 158.5 °C. In addition, in series [2], the Emax was determined as 27% and the pEC50 is < 4.52.

In turn, `O=C1c2cc(OCc3ccccc3)nn2CCCN1c1ccc(F)cc1` [Example B49, 2-(benzyloxy)-5-(4-fluorophenyl)-5,6,7,8-tetrahydro-4H-pyrazolo[1,5-a][1,4]diazepin-4-one] registered a melting point of 140.2 to 140.7 °C. Also, in series [2], the maximal effect (Emax) came to 47% and the pEC50 was 6.26.

`O=C1c2cc(OCc3ccccc3)nn2CCCN1c1ccc(F)cn1` [Example B50, 2-(benzyloxy)-5-(5-fluoropyridin-2-yl)-5,6,7,8-tetrahydro-4H-pyrazolo[1,5-a][1,4]diazepin-4-one] displayed a melting point of 112.1 to 119.1 °C. Also, in series [2], the maximal effect (Emax) was 25% and the pEC50 was < 5.00.

In turn, `Cc1nc(N2CCCn3nc(OCc4ccccc4)cc3C2=O)ccc1F` [Example B51] came in with a melting point of 114.6 to 116.1 °C. Also, in series [2], the Emax turned out to be 53% and the pEC50 was 6.44.

Turning to `Cc1cccc(N2CCCn3nc(OCc4ccccc4)cc3C2=O)n1` [Example B52], the melting point was in the range of 142.2 to 142.3 °C. Besides, in series [2], the Emax came to 48% and the pEC50 was 6.57.

Turning to `O=C1c2cc(OCc3ccccc3)nn2CCCN1CC1CC1` [Example B53, 2-(benzyloxy)-5-(cyclopropylmethyl)-5,6,7,8-tetrahydro-4H-pyrazolo[1,5-a][1,4]diazepin-4-one], the melting point is 68.1 to 68.4 °C. Also, in series [2], the maximal effect (Emax) came to 23% and the pEC50 is 5.88.

Consider `COc1c(Cl)cccc1CN1CCn2nc(OCc3ccccc3)cc2C1=O` [Example B57, 2-(benzyloxy)-5-(3-chloro-2-methoxybenzyl)-6,7-dihydropyrazolo[1,5-a]pyrazin-4(5H)-one], for which the melting point came out at 232.7 °C. Besides, in series [2], the Emax was 42% and the pEC50 was 7.12.

The molecule `O=C1c2cc(OCc3ccccc3)nn2CCN1Cc1ccccc1` [Example B59] showed a melting point of 103.8 °C. Further, in series [2], the maximal effect (Emax) is 36% and the pEC50 is 7.06.

Turning to `COc1cc(CN2CCn3nc(OCc4ccccc4)cc3C2=O)ccc1F` [Example B69], the melting point amounted to 115.1 °C. Besides, in series [2], the Emax stood at 63% and the pEC50 was 6.16.

In turn, `COc1cccc(F)c1CN1CCn2nc(OCc3ccccc3)cc2C1=O` [Example B70] yielded a melting point of 162.2 °C. In series [2], the Emax is 52% and the pEC50 is 6.37.

Consider `O=C1c2cc(OCc3ccccc3)nn2CCN1CC1CC1(F)F` (stereo not drawn) [Example B72], for which the melting point was 107.4 °C. In series [2], the Emax turned out to be 21% and the pEC50 is < 4.52.
